The record followed here is patent publication US6359111B1, “Opioid receptor targeting” (NeoRx Corporation, priority 1998, dated 2002).

This assay addresses T1, Delta-Opioid Receptor (Mus musculus, UniProt P32300).
T1 construct: host or cells: NG108-15
Kind of assay: Delta-opioid receptor binding: inhibition of specific binding of 3H NID to intact NG108-15 cells. The settings on record: for EC50: EC50 (M), competition with 3H NID, intact NG108-15 cells, 2 hr at 37° C. The procedure: To do so, 1 to 4 serial dilutions of test compounds and naltrindole (NID, Sigma) are prepared to generate solutions with concentrations ranging from 10^−3 to 10^−14 M in 50 mM Tris buffer, pH 7.5. ^3H NID (American Radiolabeled Chemicals, St. Louis, Mo., specific activity 49 dpm/10^−15 mol) is prepared in Tris at a concentration of 10^−9 M. Cultured cells of the neruablastoma/glioblastoma hybrid cell line NG108-15 (American Type Culture Collection) are briefly trypsinized, washed with media, and resuspended at 6×10^5 cells/mL. 20 μL of test compound or NID solution and 20 μL of ^3H NID are added to each of 96 wells of a Multiscreen assay system (Millipore) MAFB. 160 μL of cell suspension in Dulbecco's MEM+HAT with 10% Fetal Bovine Serum are added. The reactions are allowed to equilibrate 2 hr at 37° C., vacuum filtered, washed 2× with 200 μL ice cold Tris buffer and air dried. The filters are punched out of the plate into scintillation vials and mixed on a shaker overnight before counting.
Data is analyzed by the Prism software package (GraphPad Software, Inc., San Diego, Calif.) using a non-linear curve fit routine for one site competitive binding.

Values joined by “and” are separate entries in the source; they are usually repeats but may differ in a detail not shown here. Identical values can stand only once.

T1 sequence (P32300 whole entry): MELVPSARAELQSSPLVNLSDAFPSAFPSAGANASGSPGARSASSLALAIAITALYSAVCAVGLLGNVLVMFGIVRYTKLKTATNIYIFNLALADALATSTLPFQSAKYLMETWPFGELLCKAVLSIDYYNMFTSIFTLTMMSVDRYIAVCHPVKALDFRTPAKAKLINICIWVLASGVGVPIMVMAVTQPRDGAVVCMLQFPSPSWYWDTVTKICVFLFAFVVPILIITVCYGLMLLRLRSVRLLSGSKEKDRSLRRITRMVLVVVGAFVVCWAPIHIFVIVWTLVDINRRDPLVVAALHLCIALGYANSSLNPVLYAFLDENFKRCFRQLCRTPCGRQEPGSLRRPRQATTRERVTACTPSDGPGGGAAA

The compound `O=C(O)CN1CCN(CC(=O)O)CCN(CC(=O)O)C(Cc2ccc(NC(=O)CCCCCNC(=O)Cn3c4c(c5ccccc53)CC3(O)C5Cc6ccc(O)c7c6C3(CCN5CC3CC3)C4O7)cc2)CN(CC(=O)O)CC1` (stereo not shown) [NID-DOTA] registered an EC50 of 1.2e-08 M. Moreover, the Test/Control (ratio of EC50 of test compound to EC50 of NID in the same test) turned out to be 2.8. For the same compound, where the note is “summary of Table 1”, the “fold lower in affinity than NID” value is on record as “about 3 fold”.
`Oc1ccc2c3c1O[C@H]1c4[nH]c5ccccc5c4C[C@@]4(O)[C@@H](C2)N(CC2CC2)CC[C@]314` [NID, naltrindole, reference compound]: the EC50 was 4.2e-09 M and 1.8e-09 M.

For orientation: EC50 means the concentration giving half of the maximal effect. A low value points to an effect from little substance.
